{"source": "patent US20230284616A1", "about": "“FUNGICIDAL COMPOSITIONS” (SYNGENTA CROP PROTECTION AG, priority 2020, published 2023)", "key": {"Alternaria solani": {"tested_on": "Alternaria solani", "test": "Liquid culture test in well plates, Alternaria solani (early blight of tomato/potato), Example 1-2", "type": "cell-based", "protocol": "(§1) Mycelia fragments or conidia suspensions of a fungus, prepared either freshly from liquid cultures of the fungus or from cryogenic storage, are directly mixed into nutrient broth. DMSO solutions of the test compound (max. 10 mg/mL) is diluted with 0.025% Tween20 by factor 50 and 10 µL of this solution is pipetted into a microtiter plate (96-well format). […] The test plates are incubated in the dark at 24° C. and 96% relative humidity (rh). The inhibition of fungal growth is determined photometrically and visually after 3 - 7 days, depending on the pathosystem, and percent antifungal activity relative to the untreated check is calculated.\nConidia of the fungus from cryogenic storage were directly mixed into nutrient broth (PDB potato dextrose broth). After placing a DMSO solution of the test compositions into a microtiter plate (96-well format) the nutrient broth containing the fungal spores was added."}, "Botrytis cinerea": {"tested_on": "Botrytis cinerea", "test": "Liquid culture test in well plates, Botrytis cinerea (gray mould), Example 1-1", "type": "cell-based", "conditions": "Cyprodinil 0.005 ppm alone, growth inhibition, photometric, 72 hours, read-out: (B) inhibition (%)", "protocol": "as §1\nConidia of the fungus from cryogenic storage were directly mixed into nutrient broth (PDB potato dextrose broth). After placing a DMSO solution of the test compositions into a microtiter plate (96-well format), the nutrient broth containing the fungal spores was added."}, "[1]": {"conditions": "48 h, read-out: (A) inhibition (%)"}}, "note": "Like-named read-outs stand apart in the source and are kept apart here. Numbered stars: 1 amine (or outer) side, 2 acyl side, 3 side chain; on linkers, the order of the positions; unused ones are H or OH. Square brackets hold non-standard residues; d marks the D form. Peptide text beside a SMILES is read from it. ξ: configuration not given here. ξNMeVal(3-OH) = CNC(C(=O)O)C(C)(C)O; NMeF = CN[CH](Cc1ccccc1)C(=O)O; X1 = CCC(C)C(O[*:1])C(=O)[*:2]; NMeV = CN[CH](C(=O)O)C(C)C"}
{"smiles": "CCC(C)C1NC(=O)C2CCCN2C(=O)C(Cc2ccccc2)N(C)C(=O)C(Cc2ccccc2)NC(=O)C(C(C)C)N(C)C(=O)C(C(C)CC)OC(=O)C(C(C)(C)O)N(C)C(=O)C(CC(C)C)NC(=O)C(C(C)C)N(C)C1=O", "note": "(centres unmarked) [Aureobasidin A] (cyclo([ξNMeVal(3-OH)][X1][NMeV]F[NMeF]PI[NMeV]L); configuration not given here)", "values": [{"measurement": "inhibition at 0.01 ppm", "setting": "Alternaria solani; [1]", "value": 24, "unit": "%"}, {"measurement": "inhibition at 0.02 ppm", "setting": "Alternaria solani; [1]", "value": 31, "unit": "%"}, {"measurement": "inhibition at 0.04 ppm", "setting": "Alternaria solani; [1]", "value": 43, "unit": "%"}]}
{"smiles": "Cc1cc(C2CC2)nc(Nc2ccccc2)n1", "note": "[Cyprodinil, cyprodinil, reference compound]", "values": [{"measurement": "inhibition at 0.005 ppm", "setting": "Botrytis cinerea", "value": 34, "unit": "%"}, {"measurement": "inhibition at 0.04 ppm", "setting": "Alternaria solani; Cyprodinil 0.04 ppm alone, 48 hours, read-out: (B) inhibition (%)", "value": 35, "unit": "%"}]}
